Here are results for 21 compounds from patent publication US8937068B2, “Pyridopyrazine derivatives and their use” (Zentaris GmbH, priority 2005, dated 2015).

The target in one assay is Erk2 (Homo sapiens, UniProt P28482). The experiment in a line: Cell-free kinase assay (ALPHA technology), Erk2. The following applies: 10 μM ATP. Format: biochemical. As to the method:
The inhibitory effect of the compounds according to the invention was tested on various serine/threonine, tyrosine and lipid kinases in enzymatic assays. […] The commercial kinase proteins (Proqinase, Upstate) were used as recombinant fusion proteins with GST (glutathion-S-transferase) or His-Tag. Depending on the type of substrate, the various kinase reactions were quantified by means of suitable ALPHA™ beads (Perkin-Elmer). The substance testing is described in detail hereinafter for the Erk assay. […] a) MAPK-ALPHAs (e.g. […] The kinase reaction was then stopped by adding ALPHA bead mixes (10 μg/ml, #6760603/Perkin-Elmer) pre-incubated with 1 nM GST:Grp1 fusion protein (Upstate) and 15 nM biotinylated PIP3 (#C-39B6/Echelon) in 50 mM Hepes, 50 mM NaCl, 50 mM EDTA and 0.1% BSA and left to stand overnight. The fluorescence was detected the following morning in a Fusion™^aα-system (Perkin-Elmer). […] Eight determinations were made for each control and two for the substance samples. […] The IC50 values were determined using GraphPadPrism.

A further assay has as its system Jnk1 + Jnk2. The experiment in a line: Cell-free kinase assay (ALPHA technology), Jnk1 + Jnk2. The following applies: 10 μM ATP. It counts as biochemical, human. The protocol: (§1) The inhibitory effect of the compounds according to the invention was tested on various serine/threonine, tyrosine and lipid kinases in enzymatic assays. Recombinant human kinases such as, for example, Erk2, PI3Kalpha, -beta, -gamma, -delta, p38alpha, p38gamma, Jnk1, Jnk2 and others were used in this case, partly as full-length kinases, partly as shortened fragments, but at least consisting of the functional kinase domains. The commercial kinase proteins (Proqinase, Upstate) were used as recombinant fusion proteins with GST (glutathion-S-transferase) or His-Tag. Depending on the type of substrate, the various kinase reactions were quantified by means of suitable ALPHA™ beads (Perkin-Elmer).
(§2) The substance testing is described in detail hereinafter for the Erk assay.
(§3) a) MAPK-ALPHAs (e.g. Erk2): the test substance, 0.625 ng Erk2 (#14-173, Upstate), 10 μM ATP and 15 nM biotinylated MBP (myelin basic protein) substrate were incubated on a 384-well Optiplate (Perkin-Elmer) in a volume of 15 μl for 1 h in 25 mM Tris, 10 mM MgCl2, 0.1% Tween-20, 100 μM NaVO4, 2 mM DTT at pH 7.5. The kinase reaction was then stopped by adding 10 μl of the ALPHA bead mixes (10 μg/ml, #6760617/Perkin-Elmer) pre-incubated with anti-phospho MBP antibody (320 pM, #05-429/Upstate) in 25 mM Tris, 200 mM NaCl, 110 nM EDTA and 0.3% BSA and left to stand overnight. b) PI3K-ALPHAs (e.g. PI3Kalpha): the test substance, 1 ng PI3Kalpha (#14-602, Upstate), 100 μM ATP and 20 μM PIP2 substrate (#P4508, Echelon) were incubated on a 384-well Optiplate (Perkin-Elmer) for 1 h in 50 mM Hepes, 50 mM NaCl, 5 mM MgCl2, 0.05% Chaps, 5 mM DTT at pH 7.4. The kinase reaction was then stopped by adding ALPHA bead mixes (10 μg/ml, #6760603/Perkin-Elmer) pre-incubated with 1 nM GST:Grp1 fusion protein (Upstate) and 15 nM biotinylated PIP3 (#C-39B6/Echelon) in 50 mM Hepes, 50 mM NaCl, 50 mM EDTA and 0.1% BSA and left to stand overnight.
(§4) The fluorescence was detected the following morning in a Fusion™^aα-system (Perkin-Elmer).
(§5) The %-inhibition values per substance concentration were calculated by means of the following formula from the raw data determined in the Fusion™ ? :
(§6) Eight determinations were made for each control and two for the substance samples. The 0% control either contains no ATP or no substrate, the 100% control (fully active kinase) contains no test substance. The IC50 values were determined using GraphPadPrism.

For a further assay, the target named is p38alpha (Homo sapiens (Human), UniProt Q16539). The experiment in a line: Cell-free kinase assay (ALPHA technology), p38alpha. Format: biochemical. Conditions: 10 μM ATP. As to the method: as §1, §2, §3, §4, §5, §6
p38alpha, sequence (Q16539 whole entry): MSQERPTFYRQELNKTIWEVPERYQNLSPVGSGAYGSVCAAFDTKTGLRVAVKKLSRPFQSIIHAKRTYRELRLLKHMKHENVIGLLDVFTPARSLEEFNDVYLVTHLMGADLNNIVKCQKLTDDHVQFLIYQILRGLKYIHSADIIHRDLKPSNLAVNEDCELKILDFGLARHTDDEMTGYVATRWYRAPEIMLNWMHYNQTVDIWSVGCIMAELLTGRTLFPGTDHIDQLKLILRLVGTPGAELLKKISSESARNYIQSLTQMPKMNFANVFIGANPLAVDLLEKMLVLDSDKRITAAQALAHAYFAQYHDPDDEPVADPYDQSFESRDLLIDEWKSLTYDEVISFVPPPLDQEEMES
The target of the next assay is PI3Kalpha (Homo sapiens (Human), UniProt P42336). The experiment in a line: Cell-free kinase assay (ALPHA technology), PI3Kalpha. The following applies: 100 μM ATP. It counts as biochemical. As to the method:
as §1, §2, §3, §4, §5, §6

PI3Kalpha, sequence (P42336 whole entry): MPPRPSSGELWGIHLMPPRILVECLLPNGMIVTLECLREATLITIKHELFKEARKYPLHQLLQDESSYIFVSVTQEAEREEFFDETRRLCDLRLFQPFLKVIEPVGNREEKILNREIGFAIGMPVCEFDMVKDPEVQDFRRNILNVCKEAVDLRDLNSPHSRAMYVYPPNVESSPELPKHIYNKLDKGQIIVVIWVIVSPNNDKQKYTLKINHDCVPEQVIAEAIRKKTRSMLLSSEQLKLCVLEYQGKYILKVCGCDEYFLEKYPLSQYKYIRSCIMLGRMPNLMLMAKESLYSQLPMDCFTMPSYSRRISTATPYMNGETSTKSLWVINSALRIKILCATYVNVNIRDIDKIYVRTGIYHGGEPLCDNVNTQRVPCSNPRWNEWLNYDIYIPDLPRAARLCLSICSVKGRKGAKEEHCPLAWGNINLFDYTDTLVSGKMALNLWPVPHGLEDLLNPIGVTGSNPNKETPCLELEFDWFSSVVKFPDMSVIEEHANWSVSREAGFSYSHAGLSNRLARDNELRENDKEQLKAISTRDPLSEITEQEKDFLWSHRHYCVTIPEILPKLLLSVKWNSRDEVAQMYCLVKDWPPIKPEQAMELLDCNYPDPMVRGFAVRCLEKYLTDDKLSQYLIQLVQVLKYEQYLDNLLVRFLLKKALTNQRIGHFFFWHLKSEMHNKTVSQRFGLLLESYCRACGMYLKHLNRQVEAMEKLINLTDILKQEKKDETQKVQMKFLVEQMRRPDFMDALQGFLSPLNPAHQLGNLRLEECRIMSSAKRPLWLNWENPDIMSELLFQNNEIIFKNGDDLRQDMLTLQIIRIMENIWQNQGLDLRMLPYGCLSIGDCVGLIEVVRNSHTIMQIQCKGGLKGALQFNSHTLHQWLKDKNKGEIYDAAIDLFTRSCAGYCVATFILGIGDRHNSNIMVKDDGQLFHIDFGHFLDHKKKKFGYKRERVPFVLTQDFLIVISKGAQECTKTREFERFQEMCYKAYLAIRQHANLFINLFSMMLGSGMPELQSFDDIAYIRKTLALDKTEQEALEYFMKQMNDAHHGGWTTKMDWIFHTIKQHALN
PI3Kalpha, sequence (P27986 whole entry partner): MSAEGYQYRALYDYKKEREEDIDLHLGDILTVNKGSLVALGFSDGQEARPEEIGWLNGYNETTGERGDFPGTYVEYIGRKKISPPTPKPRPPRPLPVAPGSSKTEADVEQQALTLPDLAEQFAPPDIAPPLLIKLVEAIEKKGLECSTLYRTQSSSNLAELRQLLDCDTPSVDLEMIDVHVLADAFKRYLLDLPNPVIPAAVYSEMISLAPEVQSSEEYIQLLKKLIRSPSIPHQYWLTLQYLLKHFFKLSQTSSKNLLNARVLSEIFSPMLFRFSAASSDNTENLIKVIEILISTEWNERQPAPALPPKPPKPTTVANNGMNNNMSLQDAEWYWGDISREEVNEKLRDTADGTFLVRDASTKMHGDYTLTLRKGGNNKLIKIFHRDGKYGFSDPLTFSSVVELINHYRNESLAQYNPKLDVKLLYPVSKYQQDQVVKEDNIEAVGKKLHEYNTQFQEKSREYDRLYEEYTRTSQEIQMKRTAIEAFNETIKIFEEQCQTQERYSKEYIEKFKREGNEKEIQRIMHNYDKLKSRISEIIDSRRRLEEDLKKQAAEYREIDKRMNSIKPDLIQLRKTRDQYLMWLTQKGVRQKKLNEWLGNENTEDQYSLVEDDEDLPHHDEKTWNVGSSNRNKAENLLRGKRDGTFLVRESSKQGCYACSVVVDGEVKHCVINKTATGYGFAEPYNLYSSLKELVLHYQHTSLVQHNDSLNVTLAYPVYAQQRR
Erk2, sequence (P28482 2-360 limits assumed): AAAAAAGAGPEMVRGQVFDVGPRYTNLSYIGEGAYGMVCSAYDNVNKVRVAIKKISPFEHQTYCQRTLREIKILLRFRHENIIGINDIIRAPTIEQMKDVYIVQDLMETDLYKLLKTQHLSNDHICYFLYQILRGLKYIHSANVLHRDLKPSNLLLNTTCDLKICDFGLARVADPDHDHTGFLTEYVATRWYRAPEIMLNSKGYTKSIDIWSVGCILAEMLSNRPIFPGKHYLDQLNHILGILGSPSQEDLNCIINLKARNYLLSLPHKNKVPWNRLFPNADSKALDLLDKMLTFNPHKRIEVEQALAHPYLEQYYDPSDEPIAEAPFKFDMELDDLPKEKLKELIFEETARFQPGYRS

Take `CCN(C(C)=O)C(=O)Nc1ccc2ncc(-c3ccccc3)nc2n1` [Compound 46, 1-Acetyl-1-ethyl-3-(3-phenyl-pyrido[2,3-b]pyrazin-6-yl)-urea]: the concentration for half-maximal inhibition (IC50) was 9.5 µM at Erk2, above 100 µM in the assay on Jnk1 + Jnk2, 0.495 µM on p38alpha and above 100 µM on PI3Kalpha.
Consider `CCNC(=O)Nc1ccc2ncc(Nc3cc(Cl)c(O)c(Cl)c3)nc2n1` [Compound 185, 1-[3-(3,5-Dichloro-4-hydroxy-phenylamino)-pyrido[2,3-b]pyrazin-6-yl]-3-ethyl-urea], for which the half-maximal inhibitory concentration (IC50) was above 31.6 µM against Erk2, 4.3 µM with Jnk1 + Jnk2, above 100 µM on p38alpha and 0.154 µM against PI3Kalpha.
The matching figures for `CCNC(=O)Nc1ccc2ncc(Nc3ccnc(Cl)c3)nc2n1` [Compound 184, 1-[3-(2-Chloro-pyridin-4-ylamino)-pyrido[2,3-b]pyrazin-6-yl]-3-ethyl-urea]: above 100 µM, 6.3 µM, above 100 µM and 0.133 µM.
The matching figures for `CCNC(=O)Nc1ccc2ncc(-c3ccc(OCCCN4CCOCC4)cc3)nc2n1` [Compound 148, 1-Ethyl-3-{3-[4-(3-morpholin-4-yl-propoxy)-phenyl]-pyrido[2,3-b]pyrazin-6-yl}-urea]: 1.8 µM, 13.7 µM, above 100 µM and 1.4 µM.
In the same order, the values of `CCNC(=O)Nc1ccc2ncc(Nc3ccn(C)n3)nc2n1` [Compound 166, 1-Ethyl-3-[3-(1-methyl-1H-pyrazol-3-ylamino)-pyrido[2,3-b]pyrazin-6-yl]-urea] are 13.7 µM, 21.9 µM, above 100 µM and 1.3 µM.
In the case of `CCNC(=O)Nc1ccc2ncc(Nc3cc(OC)cc(OC)c3)nc2n1` [Compound 180, 1-[3-(3,5-Dimethoxy-phenylamino)-pyrido[2,3-b]pyrazin-6-yl]-3-ethyl-urea], the IC50 against Erk2 is 15.7 µM; with Jnk1 + Jnk2, 8.6 µM; at p38alpha, above 100 µM; on PI3Kalpha, 1.1 µM.
`CCNC(=O)Nc1ccc2ncc(Nc3ccc(OC)c(OC)c3)nc2n1` [Compound 187, 1-[3-(3,4-Dimethoxy-phenylamino)-pyrido[2,3-b]pyrazin-6-yl]-3-ethyl-urea]: the IC50 was 16.6 µM against Erk2, above 100 µM with Jnk1 + Jnk2, above 31.6 µM at p38alpha and 0.712 µM on PI3Kalpha.
For `CCNC(=O)Nc1ccc2ncc(Nc3ccc(C#N)cc3)nc2n1` [Compound 192, 1-[3-(4-Cyano-phenylamino)-pyrido-[2,3-b]pyrazin-6-yl]-3-ethyl-urea], the IC50 against Erk2 was 31.6 µM; in the assay with Jnk1 + Jnk2, 1.8 µM; at p38alpha it was above 100 µM; at PI3Kalpha, 0.422 µM.
The matching figures for `CCNC(=O)Nc1ccc2ncc(Nc3ccc(Cl)cc3)nc2n1` [Compound 159, 1-[3-(4-Chloroo-phenylamino)-pyrido-[2,3-b]pyrazin-6-yl]-3-ethyl-urea]: above 100 µM, 12.6 µM, above 100 µM and 0.147 µM.
As to `CCNC(=O)Nc1ccc2ncc(Nc3ccc(C)c(OC)c3)nc2n1` [Compound 163, 1-Ethyl-3-[3-(3-methoxy-4-methyl-phenylamino)-pyrido[2,3-b]pyrazin-6-yl]-urea], the concentration for half-maximal inhibition (IC50) at Erk2 is 26.9 µM; in the assay on Jnk1 + Jnk2 it was above 31.6 µM; on p38alpha it was above 100 µM; at PI3Kalpha, 0.096 µM.
In the same order, the values of `CCNC(=O)Nc1ccc2ncc(Nc3cnc4ccccc4c3)nc2n1` [Compound 179, 1-Ethyl-3-[3-(chinolin-3-ylamino)-pyrido[2,3-b]pyrazin-6-yl]-urea] are 8 µM, 8.1 µM, 1.4 µM and 0.202 µM.
In the same order, the values of `CCNC(=O)Nc1ccc2ncc(Nc3ccc(OC)nc3)nc2n1` [Compound 190, 1-Ethyl-3-[3-(6-methoxy-pyridin-3-ylamino)-pyrido[2,3-b]pyrazin-6-yl]-urea] are above 100 µM, 31 µM, above 100 µM and 0.271 µM.
On to `CCNC(=O)Nc1ccc2ncc(-c3ccc(N)c(OC)c3)nc2n1` [Compound 154, 1-[3-(4-Amino-3-methoxy-phenyl)-pyrido[2,3-b]pyrazin-6-yl]-3-ethyl-urea], for which the IC50 is 0.592 µM against Erk2, 2.8 µM in the assay on Jnk1 + Jnk2, above 31.6 µM against p38alpha and 0.984 µM against PI3Kalpha.
`O=C(NCCCO)Nc1ccc2ncc(-c3ccccc3)nc2n1` [Compound 147, 1-(3-Hydroxy-propyl)-3-(3-phenyl-pyrido[2,3-b]pyrazin-6-yl)-urea]: the IC50 is 0.711 µM on Erk2, 14.2 µM in the assay with Jnk1 + Jnk2, above 100 µM against p38alpha and 4.1 µM on PI3Kalpha.
In the same order, the values of `CCNC(=O)Nc1ccc2ncc(-c3c(C)n[nH]c3C)nc2n1` [Compound 172, 1-[3-(3,5-Dimethyl-1H-pyrazol-4-yl)-pyrido[2,3-b]pyrazin-6-yl]-3-ethyl-urea] are 0.41 µM, 4 µM, above 100 µM and 4 µM.
The matching figures for `CCNC(=O)Nc1ccc2ncc(Nc3ccc(OC)cc3)nc2n1` [Compound 158, 1-Ethyl-3-[3-(4-methoxy-phenylamino)-pyrido[2,3-b]pyrazin-6-yl]-urea]: above 100 µM, above 31.6 µM, above 100 µM and 0.186 µM.
As for “1-[3-(3,5-Dichloro-4-hydroxy-phenyl)-pyrido[2,3-b]pyrazin-6-yl]-3-ethyl-urea [Compound 186]”, the IC50 against Erk2 was 0.223 µM; with Jnk1 + Jnk2, 2.5 µM; against p38alpha, above 100 µM; at PI3Kalpha, 3.8 µM.
In the same order, the values of `CCNC(=O)Nc1ccc2ncc(Nc3cccnc3)nc2n1` [Compound 161, 1-Ethyl-3-[3-(pyridin-3-ylamino)-pyrido-[2,3-b]pyrazin-6-yl]-urea] are above 100 µM, above 100 µM, above 100 µM and 1.1 µM.
The matching figures for `CCNC(=O)Nc1ccc2ncc(-c3ccc(Cl)cc3OC)nc2n1` [Compound 171, 1-[3-(4-Chloro-2-methoxy-phenyl)-pyrido[2,3-b]pyrazin-6-yl]-3-ethyl-urea]: 0.084 µM, 1.4 µM, above 100 µM and 3 µM.
In the same order, the values of `CCNC(=O)Nc1ccc2ncc(-c3ccc(N)cc3)nc2n1` [Compound 82, 1-[3-(4-Amino-phenyl)-pyrido[2,3-b]pyrazin-6-yl]-3-ethyl-urea] are 0.944 µM, 1.1 µM, above 31.6 µM and 6.4 µM.
Take `CCNC(=O)Nc1ccc2ncc(-c3ccc(O)cc3Cl)nc2n1` [Compound 170, 1-[3-(2-Chloro-4-hydroxy-phenyl)-pyrido[2,3-b]pyrazin-6-yl]-3-ethyl-urea]: the IC50 was 0.103 µM against Erk2, 1.1 µM in the assay with Jnk1 + Jnk2, above 31.6 µM on p38alpha and 2.4 µM against PI3Kalpha.
